# Reference: US20260250290A1 (BRISTOL-MYERS SQUIBB COMPANY, priority 2023, published 2026)
# Target: T1, SGK1 (Homo sapiens, UniProt O00141)
# T1 sequence (O00141 1-431): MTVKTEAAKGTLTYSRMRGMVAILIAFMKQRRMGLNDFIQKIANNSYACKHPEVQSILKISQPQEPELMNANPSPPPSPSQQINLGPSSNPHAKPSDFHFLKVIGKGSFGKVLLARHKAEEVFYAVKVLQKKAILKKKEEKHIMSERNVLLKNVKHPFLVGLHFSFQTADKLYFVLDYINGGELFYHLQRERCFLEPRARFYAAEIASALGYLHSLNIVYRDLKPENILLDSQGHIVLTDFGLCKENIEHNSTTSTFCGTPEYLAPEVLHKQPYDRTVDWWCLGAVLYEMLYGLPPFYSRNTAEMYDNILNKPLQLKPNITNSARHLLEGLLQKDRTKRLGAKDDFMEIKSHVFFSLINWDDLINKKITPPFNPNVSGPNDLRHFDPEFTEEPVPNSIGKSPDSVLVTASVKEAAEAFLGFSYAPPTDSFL
# Experiment: SGK1 inhibition Assay B (Echo mass spectrometry of phosphorylated peptide product)
# Type: biochemical
# Settings: 60 min at room temperature
row,SMILES,IC50
1,"CC(C)S(=O)(=O)c1ccc(-c2cc(N3CCC[C@@H](NC(=O)c4sc(Cl)cc4O[C@@H]4C[C@H]5CC[C@@H](C4)N5C)C3)c3c(N)ncnn23)cn1 [Example 969, N-[(3R)-1-{4-amino-7-[6-(propane-2-sulfonyl)pyridin-3-yl]pyrrolo[2,1-f][1,2,4]triazin-5-yl}piperidin-3-yl]-5-chloro-3-{[(R,3R,5S)-8-methyl-8-azabicyclo[3.2.1]octan-3-yl]oxy}thiophene-2-carboxamide]",4 nM
2,"CCN1[C@@H]2CCC[C@H]1C[C@H](Oc1nc(C)sc1C(=O)N[C@@H]1CCCN(c3cc(-c4ccc(=O)n(CC(F)F)n4)n4ncnc(N)c34)C1)C2 [Example 970, N—((R)-1-(4-amino-7-(1-(2,2-difluoroethyl)-6-oxo-1,6-dihydropyridazin-3-yl)pyrrolo[2,1-f][1,2,4]triazin-5-yl)piperidin-3-yl)-4-(((1R,3s,5S)-9-ethyl-9-azabicyclo[3.3.1]nonan-3-yl)oxy)-2-methylthiazole-5-carboxamide]",5 nM
3,"COCCn1nc(-c2cc(N3CCC[C@@H](NC(=O)c4sc(Cl)cc4O[C@@H]4C[C@H]5CCC[C@@H](C4)N5C)C3)c3c(N)ncnn23)ccc1=O [Example 971, N—((R)-1-(4-Amino-7-(1-(2-methoxyethyl)-6-oxo-1,6-dihydropyridazin-3-yl)pyrrolo[2,1-f][1,2,4]triazin-5-yl)piperidin-3-yl)-5-chloro-3-(((1R,3s,5S)-9-methyl-9-azabicyclo[3.3.1]nonan-3-yl)oxy)thiophene-2-carboxamide]",1 nM
4,"Nc1ncnn2c(-c3ccc(=O)n(CC(F)F)n3)cc(N3CCC[C@@H](NC(=O)c4sc(Cl)cc4O[C@@H]4C[C@H]5CCC[C@@H](C4)N5CCO)C3)c12 [Example 972, N—((R)-1-(4-amino-7-(1-(2,2-difluoroethyl)-6-oxo-1,6-dihydropyridazin-3-yl)pyrrolo[2,1-f][1,2,4]triazin-5-yl)piperidin-3-yl)-5-chloro-3-(((1R,3s,5S)-9-(2-hydroxyethyl)-9-azabicyclo[3.3.1]nonan-3-yl)oxy)thiophene-2-carboxamide]",2 nM
5,"Cc1nc(O[C@H]2CC[C@@H](N(C)C)CC2)c(C(=O)N[C@@H]2CCCN(c3cc(-c4ccc(=O)n(CC(F)(F)F)n4)n4ncnc(N)c34)C2)s1 [Example 973, N—((R)-1-(4-amino-7-(6-oxo-1-(2,2,2-trifluoroethyl)-1,6-dihydropyridazin-3-yl)pyrrolo[2,1-f][1,2,4]triazin-5-yl)piperidin-3-yl)-4-(((1s,4S)-4-(dimethylamino)cyclohexyl)oxy)-2-methylthiazole-5-carboxamide]",4 nM
6,"CN1[C@@H]2CC[C@H]1C[C@H](Oc1cc(Cl)sc1C(=O)N[C@@H]1CCCN(c3c(F)c(C4=CCOC4)n4ncnc(N)c34)C1)C2 [Example 976, N—((R)-1-(4-amino-7-(2,5-dihydrofuran-3-yl)-6-fluoropyrrolo[2,1-f][1,2,4]triazin-5-yl)piperidin-3-yl)-5-chloro-3-(((1R,3s,5S)-8-methyl-8-azabicyclo[3.2.1]octan-3-yl)oxy)thiophene-2-carboxamide]",1 nM
7,"Cc1nc(O[C@H]2CC[C@@H](NC(C)C)CC2)c(C(=O)N[C@@H]2CCCN(c3cc(C4=CC(=O)OC4)n4ncnc(N)c34)C2)s1 [Example 977, N—((R)-1-(4-amino-7-(5-oxo-2,5-dihydrofuran-3-yl)pyrrolo[2,1-f][1,2,4]triazin-5-yl)piperidin-3-yl)-4-(((1s,4S)-4-(isopropylamino)cyclohexyl)oxy)-2-methylthiazole-5-carboxamide]",1 nM
8,"Cc1nc(O[C@H]2CC[C@@H](NCC(C)(C)O)CC2)c(C(=O)N[C@@H]2CCCN(c3cc(-c4ccc(C(N)=O)c(F)c4)n4ncnc(N)c34)C2)s1 [Example 978, N—((R)-1-(4-Amino-7-(4-carbamoyl-3-fluorophenyl)pyrrolo[2,1-f][1,2,4]triazin-5-yl)piperidin-3-yl)-4-(((1s,4S)-4-((2-hydroxy-2-methylpropyl)amino)cyclohexyl)oxy)-2-methylthiazole-5-carboxamide]",3 nM
9,"Cc1nc(O[C@H]2CC[C@@H](NCCC#N)CC2)c(C(=O)N[C@@H]2CCCN(c3cc(-c4ccc(C(N)=O)c(F)c4)n4ncnc(N)c34)C2)s1 [Example 979, N—((R)-1-(4-Amino-7-(4-carbamoyl-3-fluorophenyl)pyrrolo[2,1-f][1,2,4]triazin-5-yl)piperidin-3-yl)-4-(((1s,4S)-4-((2-cyanoethyl)amino)cyclohexyl)oxy)-2-methylthiazole-5-carboxamide]",4 nM
10,"Cc1nc(O[C@H]2CC[C@@H](NC3CCOC3)CC2)c(C(=O)N[C@@H]2CCCN(c3cc(-c4ccc(=O)n(CC(F)F)n4)n4ncnc(N)c34)C2)s1 (stereo partly drawn) [Example 980, N—((R)-1-(4-Amino-7-(1-(2,2-difluoroethyl)-6-oxo-1,6-dihydropyridazin-3-yl)pyrrolo[2,1-f][1,2,4]triazin-5-yl)piperidin-3-yl)-2-methyl-4-(((1s,4S)-4-((tetrahydrofuran-3-yl)amino)cyclohexyl)oxy)thiazole-5-carboxamide]",1 nM
11,CCN1CCC(Oc2nc(C)sc2C(=O)N[C@@H]2CCCN(c3cc(-c4ccc(C(N)=O)c(F)c4)n4ncnc(N)c34)C2)CC12CCC2 (some centres unmarked) [Example 982],6 nM
12,"CC(C)N1CC2CCC1CC2Oc1cc(Cl)sc1C(=O)N[C@@H]1CCCN(c2cc(-c3ccc(-n4cnnn4)nc3)n3ncnc(N)c23)C1 (stereo partly drawn) [Example 989, N—((R)-1-(7-(6-(1H-tetrazol-1-yl)pyridin-3-yl)-4-aminopyrrolo[2,1-f][1,2,4]triazin-5-yl)piperidin-3-yl)-5-chloro-3-((2-isopropyl-2-azabicyclo[2.2.2]octan-5-yl)oxy)thiophene-2-carboxamide]",0.9 nM
13,CN(C)CC(=O)N1CC2CCC1CC2Oc1cc(Cl)sc1C(=O)N[C@@H]1CCCN(c2cc(-c3ccc(-n4cnnn4)nc3)n3ncnc(N)c23)C1 (some centres unmarked) [Example 990],1 nM
14,"CN1CC2CCC1CC2Oc1cc(Cl)sc1C(=O)N[C@@H]1CCCN(c2cc(-c3ccc(=O)n(CC(F)F)c3)n3ncnc(N)c23)C1 (stereo partly drawn) [Example 991, N—((R)-1-(4-amino-7-(1-(2,2-difluoroethyl)-6-oxo-1,6-dihydropyridin-3-yl)pyrrolo[2,1-f][1,2,4]triazin-5-yl)piperidin-3-yl)-5-chloro-3-((2-methyl-2-azabicyclo[2.2.2]octan-5-yl)oxy)thiophene-2-carboxamide]",0.8 nM
15,"Nc1ncnn2c(-c3ccc(-n4cnnn4)c(F)c3)cc(N3CCC[C@@H](NC(=O)c4sc(Cl)cc4OC4CC5CC4CN5C4COC4)C3)c12 (stereo partly drawn) [Example 994, N—((R)-1-(4-amino-7-(3-fluoro-4-(1H-tetrazol-1-yl)phenyl)pyrrolo[2,1-f][1,2,4]triazin-5-yl)piperidin-3-yl)-5-chloro-3-((2-(oxetan-3-yl)-2-azabicyclo[2.2.1]heptan-5-yl)oxy)thiophene-2-carboxamide]",0.6 nM
16,"COC[C@@H](C)NC1CCC(Oc2nc(C)sc2C(=O)N[C@@H]2CCCN(c3cc(C4=CC(=O)OC4)n4ncnc(N)c34)C2)CC1 (stereo partly drawn) [Example 996, N—((R)-1-(4-amino-7-(5-oxo-2,5-dihydrofuran-3-yl)pyrrolo[2,1-f][1,2,4]triazin-5-yl)piperidin-3-yl)-4-((4-(((R)-1-methoxypropan-2-yl)amino)cyclohexyl)oxy)-2-methylthiazole-5-carboxamide]",1.1 nM

# The next lines start with the values.
row,IC50,SMILES
1,7 nM,"CN1[C@@H]2CC[C@H]1C[C@H](Oc1cc(Cl)sc1C(=O)N[C@@H]1CCCN(c3cc(-c4ccnn4C)n4ncnc(N)c34)C1)C2 [Example 975, N—((R)-1-(4-amino-7-(1-methyl-1H-pyrazol-5-yl)pyrrolo[2,1-f][1,2,4]triazin-5-yl)piperidin-3-yl)-5-chloro-3-(((1R,3s,5S)-8-methyl-8-azabicyclo[3.2.1]octan-3-yl)oxy)thiophene-2-carboxamide]"
2,4 nM,"CCN1CCC(Oc2nc(C)sc2C(=O)N[C@@H]2CCCN(c3cc(C4=CCN(C(=O)C5(C#N)CC5)C4)n4ncnc(N)c34)C2)CC1(C)C (stereo partly drawn) [Example 985, N—((R)-1-(4-Amino-7-(1-(1-cyanocyclopropane-1-carbonyl)-2,5-dihydro-1H-pyrrol-3-yl)pyrrolo[2,1-f][1,2,4]triazin-5-yl)piperidin-3-yl)-4-((1-ethyl-2,2-dimethylpiperidin-4-yl)oxy)-2-methylthiazole-5-carboxamide]"
3,0.9 nM,"CC(=O)N1CC=C(c2cc(N3CCC[C@@H](NC(=O)c4sc(Cl)cc4OC4CC5COCC(C4)N5)C3)c3c(N)ncnn23)C1 (stereo partly drawn) [Example 986E, 3-((3-Oxa-9-azabicyclo[3.3.1]nonan-7-yl)oxy)-N—((R)-1-(7-(1-acetyl-2,5-dihydro-1H-pyrrol-3-yl)-4-aminopyrrolo[2,1-f][1,2,4]triazin-5-yl)piperidin-3-yl)-5-chlorothiophene-2-carboxamide]"
4,37 nM,CC(=O)N1CC=C(c2cc(N3CCC[C@@H](NC(=O)c4sc(Cl)cc4OC4CC5COCC(C4)N5CCO)C3)c3c(N)ncnn23)C1 (some centres unmarked) [Example 986]
5,1 nM,CC(=O)N1CC=C(c2cc(N3CCC[C@@H](NC(=O)c4sc(Cl)cc4OC4CCCN(C(C)C)CC4)C3)c3c(N)ncnn23)C1 (some centres unmarked) [Example 987]
6,3 nM,"CC(=O)N1CC=C(c2cc(N3CCC[C@@H](NC(=O)c4sc(Cl)cc4O[C@@H]4C[C@H]5CC[C@@H](C4)O5)C3)c3c(N)ncnn23)C1 [Example 988, 3-(((IR,3s.5S)-8-oxabicyclo[3.2.1]octan-3-y1)oxy)-N-((R)-1-(7-(1-acetyl-2,5-dihydro-1H-pyrrol-3-y1)-4-aminopyrrolo[2,1-f][1,2,4]triazin-5-y1)piperidin-3-y1)-5-chlorothiophene-2-carboxamide]"
7,1 nM,CC(C)N1CC2(CC(Oc3cc(Cl)sc3C(=O)N[C@@H]3CCCN(c4cc(-c5ccnc(C#N)c5)n5ncnc(N)c45)C3)C2)C1 [Example 995]
